In ChEMBL document CHEMBL4368935, “Binding of thiazolidinediones to the endoplasmic reticulum protein nutrient-deprivation autophagy factor-1” (Bioorg Med Chem Lett, 2019):
Active and inactive are the calls of the source. The rule behind the calls is not given here.

What was measured:
[1] = target: T1, CDGSH iron-sulfur domain-containing protein 2 (Homo sapiens, UniProt Q8N5K1); assay: Binding affinity to recombinant human N-terminal His6-tagged NAF1 expressed in Escherichia coli by scintillation proximity assay
T1 sequence (Q8N5K1 whole entry): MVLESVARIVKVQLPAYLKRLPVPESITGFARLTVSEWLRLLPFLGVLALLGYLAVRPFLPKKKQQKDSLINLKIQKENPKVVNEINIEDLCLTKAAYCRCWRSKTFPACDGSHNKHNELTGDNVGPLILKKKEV

[2] = target: T2, CDGSH iron-sulfur domain-containing protein 2 (Homo sapiens) (UniProt Q8N5K1); assay: Binding affinity to NAF1 (unknown origin) expressed in human HepG2 cells assessed as increase in mitochondrial respiration at 30 uM relative to wild-type cells; type: cell-based
T2 sequence (whole entry): T1 sequence (Q8N5K1 whole entry)

[3] = target: T2, CDGSH iron-sulfur domain-containing protein 2 (Homo sapiens); assay: Binding affinity to NAF1 (unknown origin) expressed in human HepG2 cells assessed as inhibition of mitochondrial respiration at 30 uM; type: cell-based
[4] = target: T2, CDGSH iron-sulfur domain-containing protein 2 (Homo sapiens); assay: Binding affinity to NAF1 in human HepG2 cells assessed as inhibition of mitochondrial respiration at 30 uM; type: cell-based

| Compound | IC50 [1] | Activity [2] | inhibition [3] | inhibition [4] |
| --- | --- | --- | --- | --- |
| CCc1ccc(CCOc2ccc(CC3SC(=O)NC3=O)cc2)nc1 (stereo not given) [PIOGLITAZONE] | 4.8 µM | 13% | Active | Active |
| CN(CCOc1ccc(CC2SC(=O)NC2=O)cc1)c1ccccn1 (stereo not given) [ROSIGLITAZONE] | 2.29 µM |  | Active | Active |
| CC(C)(C)c1cc(CC2SC(=O)N=C2O)cc(C(C)(C)C)c1O (stereo not given) | 29.8 µM |  | Active | Active |
